Data published in ChEMBL document CHEMBL1201862, “PubChem BioAssay data set” (2004).
Active and inactive are the calls of the source.

Assays:
[1] = Luminescence Cell-Based Dose Response HTS to Identify Inhibitors of 5'UTR Stem-Loop Driven Prion Protein mRNA Translation in H4 Neuroglioblastoma Cells. [Related pubchem assays: 1827 (Project Summary), 1813 (Primary HTS)]; format: functional
[2] = inhibitors of SNCA 5'UTR-driven reporter translation, confirmation, H4 neuroglioma cells, luminescence (AID 1988); format: functional, cell-based
[3] = molecular target: Eukaryotic translation initiation factor 4E (Mus musculus, UniProt P63073); assay: eIF4E–eIF4G protein interaction inhibitors, dose response, biochemical, TR-FRET (AID 855); format: functional;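 note: potency for disrupting eIF4E binding to eIF4GI seen as loss of FRET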
[4] = inhibitors of firefly luciferase expression or activity, dose response, H4 neuroglioma cells, luminescence (AID 1990); format: functional, cell-based
Cytochrome P450 3A4 [5] = molecular target: T1, Cytochrome P450 3A4 (Homo sapiens, UniProt P08684);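 note: CYP3A4 tested as one member of a cytochrome P450 panel screen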
Cytochrome P450 1A2 = molecular target: T2, Cytochrome P450 1A2 (Homo sapiens, UniProt P05177);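 note: PubChem cytochrome P450 panel assay, CYP1A2 panel member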
T2 sequence (P05177 whole entry): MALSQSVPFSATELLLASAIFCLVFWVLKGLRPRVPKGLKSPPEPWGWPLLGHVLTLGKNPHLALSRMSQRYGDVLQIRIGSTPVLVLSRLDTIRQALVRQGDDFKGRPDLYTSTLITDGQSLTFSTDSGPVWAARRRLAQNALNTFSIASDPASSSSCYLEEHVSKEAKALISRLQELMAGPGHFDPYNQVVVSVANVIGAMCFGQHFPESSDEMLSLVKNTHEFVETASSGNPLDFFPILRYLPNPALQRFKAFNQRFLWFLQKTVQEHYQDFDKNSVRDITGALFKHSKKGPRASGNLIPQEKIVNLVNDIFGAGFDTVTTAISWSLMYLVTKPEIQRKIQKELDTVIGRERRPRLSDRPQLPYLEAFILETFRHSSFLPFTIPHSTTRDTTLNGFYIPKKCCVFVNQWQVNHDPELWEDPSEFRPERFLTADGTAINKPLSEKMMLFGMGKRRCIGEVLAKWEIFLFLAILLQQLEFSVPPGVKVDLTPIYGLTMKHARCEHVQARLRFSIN

Cytochrome P450 2C9 [6] = molecular target: T3, Cytochrome P450 2C9 (Homo sapiens, UniProt P11712)
Cytochrome P450 2D6 = Cytochrome P450 2D6 (Homo sapiens, UniProt P10635);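 note: CYP2D6 member of a cytochrome P450 panel assay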
Cytochrome P450 2C19 = Cytochrome P450 2C19 (Homo sapiens, UniProt P33261); assay: Cytochrome panel assay with activity outcomes. Panel member name: p450-cyp2c19 Compounds with AC50 equal or less than 10 uM are considered active; format: functional
Cytochrome P450 3A4 [7] = molecular target: T1, Cytochrome P450 3A4; remark: listed apart in the source
Prothrombin = Prothrombin (Homo sapiens, UniProt P00734); assay: Thrombin 1536 HTS Dose Response Confirmation. [Related pubchem assays: 1046 (Thrombin 1536 HTS; hits were confirmed in this assay)]; format: functional
Estrogen receptor beta [8] = molecular target: T4, Estrogen receptor beta (Homo sapiens, UniProt Q92731); assay: ERβ–SRC-3 coactivator interaction inhibitors, confirmation, orthogonal assay, biochemical, ELISA, streptavidin-HRP readout (AID 1060)
Estrogen receptor beta [9] = molecular target: T4, Estrogen receptor beta
Ephrin type-A receptor 4 = Ephrin type-A receptor 4 (Mus musculus, UniProt Q03137); assay: inhibitors of EphA4 binding to KYL peptide, primary screen, biochemical, colorimetric, mouse EphA4 (AID 689); format: functional
Large T antigen = Large T antigen (Simian virus 40, UniProt P03070); format: functional, Betapolyomavirus macacae;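 note: Confirmatory-stage PubChem screen for compounds that inhibit SV40 T antigen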
[10] = inhibitors of intracellular T. cruzi replication, confirmation, NIH3T3 host cells, beta-gal luminescence (AID 2044); format: functional, cell-based;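 note: intracellular parasites grown in NIH/3T3 mouse fibroblasts as host cells; luminescent beta-galactosidase reporter signal from transgenic T. cruzi replicating inside host cells; inhibitors lower the luminescence signal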
[11] = cytotoxicity toward NIH3T3 fibroblasts, dose response, counter-screen, cell-based, ATP luminescence, mouse fibroblasts (AID 2010); format: functional; conditions: NIH3T3;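 note: cells exposed to compound for about 90 hours before reading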
[12] = molecular target: T5, DNA repair and recombination protein RAD54-like (Homo sapiens, UniProt Q92698); assay: inhibitors of human RAD54 branch migration, confirmation, biochemical, fluorescence, cherry-picked samples, dose series (AID 651657); format: functional
T5 sequence (Q92698 whole entry): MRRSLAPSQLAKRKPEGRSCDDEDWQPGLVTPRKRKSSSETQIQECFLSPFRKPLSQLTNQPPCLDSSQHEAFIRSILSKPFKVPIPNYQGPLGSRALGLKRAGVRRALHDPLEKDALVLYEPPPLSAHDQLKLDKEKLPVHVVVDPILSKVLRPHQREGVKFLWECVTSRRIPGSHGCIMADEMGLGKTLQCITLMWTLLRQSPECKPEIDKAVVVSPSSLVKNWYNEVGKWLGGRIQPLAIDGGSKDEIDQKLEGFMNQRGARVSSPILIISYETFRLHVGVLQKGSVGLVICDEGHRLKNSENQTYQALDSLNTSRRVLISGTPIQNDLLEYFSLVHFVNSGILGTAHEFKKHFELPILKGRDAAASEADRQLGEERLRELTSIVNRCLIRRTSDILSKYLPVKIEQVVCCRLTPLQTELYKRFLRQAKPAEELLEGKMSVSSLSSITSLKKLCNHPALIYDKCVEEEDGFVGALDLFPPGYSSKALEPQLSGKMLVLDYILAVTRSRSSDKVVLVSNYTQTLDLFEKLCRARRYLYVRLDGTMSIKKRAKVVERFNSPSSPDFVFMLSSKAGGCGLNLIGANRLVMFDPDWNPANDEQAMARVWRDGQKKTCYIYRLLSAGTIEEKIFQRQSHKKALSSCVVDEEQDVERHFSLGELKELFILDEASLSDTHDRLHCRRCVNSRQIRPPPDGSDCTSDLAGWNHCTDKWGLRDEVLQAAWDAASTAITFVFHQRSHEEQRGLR

[13] = molecular target: T6, DNA repair protein RAD52 homolog (Homo sapiens, UniProt P43351); format: functional, biochemical
T6 sequence (P43351 whole entry): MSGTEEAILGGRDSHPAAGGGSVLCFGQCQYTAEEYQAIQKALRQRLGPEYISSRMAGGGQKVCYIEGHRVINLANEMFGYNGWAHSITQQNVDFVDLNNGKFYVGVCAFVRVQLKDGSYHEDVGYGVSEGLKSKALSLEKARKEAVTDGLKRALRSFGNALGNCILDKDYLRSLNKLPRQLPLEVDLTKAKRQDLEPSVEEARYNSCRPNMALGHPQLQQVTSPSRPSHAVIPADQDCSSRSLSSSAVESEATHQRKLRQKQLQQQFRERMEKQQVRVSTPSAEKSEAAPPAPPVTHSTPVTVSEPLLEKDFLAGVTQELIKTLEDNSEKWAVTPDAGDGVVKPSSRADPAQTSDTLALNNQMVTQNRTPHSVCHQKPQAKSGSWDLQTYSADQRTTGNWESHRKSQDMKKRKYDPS

[14] = molecular target: T7, Histone-lysine N-methyltransferase NSD2 (Homo sapiens, UniProt O96028); format: biochemical
T7 sequence (O96028 whole entry): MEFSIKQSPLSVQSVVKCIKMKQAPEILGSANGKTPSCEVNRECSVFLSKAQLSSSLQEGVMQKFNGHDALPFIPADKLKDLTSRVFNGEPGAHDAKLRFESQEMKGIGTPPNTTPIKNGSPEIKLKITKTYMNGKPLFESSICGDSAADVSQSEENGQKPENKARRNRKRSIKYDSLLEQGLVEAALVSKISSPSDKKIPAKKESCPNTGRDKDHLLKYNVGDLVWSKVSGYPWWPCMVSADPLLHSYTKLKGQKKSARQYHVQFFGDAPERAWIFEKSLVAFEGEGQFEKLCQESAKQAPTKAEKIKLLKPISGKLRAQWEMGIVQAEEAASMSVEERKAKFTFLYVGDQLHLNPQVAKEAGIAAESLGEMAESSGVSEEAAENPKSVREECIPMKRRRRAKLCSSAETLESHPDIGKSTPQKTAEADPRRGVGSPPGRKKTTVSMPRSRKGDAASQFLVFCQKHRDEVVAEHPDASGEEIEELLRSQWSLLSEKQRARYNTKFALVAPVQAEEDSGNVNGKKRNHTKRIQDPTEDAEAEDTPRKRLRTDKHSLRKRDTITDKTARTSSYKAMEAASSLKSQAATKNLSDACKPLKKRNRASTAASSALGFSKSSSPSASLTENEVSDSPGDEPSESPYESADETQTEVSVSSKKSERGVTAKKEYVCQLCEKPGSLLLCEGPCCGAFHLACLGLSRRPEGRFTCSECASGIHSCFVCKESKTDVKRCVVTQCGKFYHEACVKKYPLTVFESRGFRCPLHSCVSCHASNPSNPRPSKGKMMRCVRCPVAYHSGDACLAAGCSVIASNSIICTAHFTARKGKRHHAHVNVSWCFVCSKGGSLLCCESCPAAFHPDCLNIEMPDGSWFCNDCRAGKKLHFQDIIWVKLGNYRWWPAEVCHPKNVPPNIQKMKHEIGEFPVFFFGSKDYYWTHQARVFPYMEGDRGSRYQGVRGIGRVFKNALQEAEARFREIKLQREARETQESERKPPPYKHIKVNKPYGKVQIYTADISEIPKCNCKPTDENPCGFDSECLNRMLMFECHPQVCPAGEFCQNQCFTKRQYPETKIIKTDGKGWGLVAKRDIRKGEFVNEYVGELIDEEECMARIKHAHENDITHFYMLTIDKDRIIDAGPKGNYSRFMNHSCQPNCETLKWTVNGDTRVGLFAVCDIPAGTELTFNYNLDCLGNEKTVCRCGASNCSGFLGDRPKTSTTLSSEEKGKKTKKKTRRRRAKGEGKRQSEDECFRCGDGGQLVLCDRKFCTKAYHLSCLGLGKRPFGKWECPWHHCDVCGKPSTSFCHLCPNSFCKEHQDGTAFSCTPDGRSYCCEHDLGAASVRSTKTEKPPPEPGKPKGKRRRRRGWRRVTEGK

[15] = molecular target: FAD-linked sulfhydryl oxidase ALR (Homo sapiens, UniProt P55789); assay: inhibitors of human ALR sulfhydryl oxidase, dose response, biochemical, H2O2 detection, luminescence, cherry-pick (AID 493248)
Cytochrome P450 2C9 [16] = molecular target: T3, Cytochrome P450 2C9; remark: listed apart in the source
Tumor necrosis factor = Tumor necrosis factor (Homo sapiens, UniProt P01375); assay: TNFa-triggered NF-kB activation inhibitors, SAR follow-up, cell-based, revised (AID 2337); format: functional
HEK293 = assay: cells; conditions: Homo sapiens;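 note: cells exposed to compound for 14 hours overnight before viability readout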
[17] = molecular target: Glyceraldehyde-3-phosphate dehydrogenase (Homo sapiens, UniProt P04406)
Glyceraldehyde-3-phosphate dehydrogenase, sequence (P04406 whole entry): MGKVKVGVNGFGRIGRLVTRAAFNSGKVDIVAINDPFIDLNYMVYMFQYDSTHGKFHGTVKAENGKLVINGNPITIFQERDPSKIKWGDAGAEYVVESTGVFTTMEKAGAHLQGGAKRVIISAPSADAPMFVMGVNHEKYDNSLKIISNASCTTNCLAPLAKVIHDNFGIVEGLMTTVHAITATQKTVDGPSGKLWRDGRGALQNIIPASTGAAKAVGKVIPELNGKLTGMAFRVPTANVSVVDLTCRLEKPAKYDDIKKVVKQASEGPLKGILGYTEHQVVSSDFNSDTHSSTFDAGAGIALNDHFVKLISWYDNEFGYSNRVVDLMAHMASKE

T1 sequence (P08684 whole entry): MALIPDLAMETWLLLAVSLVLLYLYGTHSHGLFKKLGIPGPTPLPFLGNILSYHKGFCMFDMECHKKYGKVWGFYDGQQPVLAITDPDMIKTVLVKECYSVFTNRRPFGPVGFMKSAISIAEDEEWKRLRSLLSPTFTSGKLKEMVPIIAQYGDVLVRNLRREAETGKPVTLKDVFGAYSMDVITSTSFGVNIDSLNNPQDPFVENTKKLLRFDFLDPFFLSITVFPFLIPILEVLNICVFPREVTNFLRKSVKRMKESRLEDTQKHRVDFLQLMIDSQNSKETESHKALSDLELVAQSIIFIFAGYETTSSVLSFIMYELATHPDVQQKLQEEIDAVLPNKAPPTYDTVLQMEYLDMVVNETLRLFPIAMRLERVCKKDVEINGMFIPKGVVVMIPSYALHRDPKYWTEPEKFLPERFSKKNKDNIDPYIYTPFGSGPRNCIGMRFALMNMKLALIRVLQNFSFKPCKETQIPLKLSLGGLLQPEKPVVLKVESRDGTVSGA
Cytochrome P450 2D6, sequence (P10635 whole entry): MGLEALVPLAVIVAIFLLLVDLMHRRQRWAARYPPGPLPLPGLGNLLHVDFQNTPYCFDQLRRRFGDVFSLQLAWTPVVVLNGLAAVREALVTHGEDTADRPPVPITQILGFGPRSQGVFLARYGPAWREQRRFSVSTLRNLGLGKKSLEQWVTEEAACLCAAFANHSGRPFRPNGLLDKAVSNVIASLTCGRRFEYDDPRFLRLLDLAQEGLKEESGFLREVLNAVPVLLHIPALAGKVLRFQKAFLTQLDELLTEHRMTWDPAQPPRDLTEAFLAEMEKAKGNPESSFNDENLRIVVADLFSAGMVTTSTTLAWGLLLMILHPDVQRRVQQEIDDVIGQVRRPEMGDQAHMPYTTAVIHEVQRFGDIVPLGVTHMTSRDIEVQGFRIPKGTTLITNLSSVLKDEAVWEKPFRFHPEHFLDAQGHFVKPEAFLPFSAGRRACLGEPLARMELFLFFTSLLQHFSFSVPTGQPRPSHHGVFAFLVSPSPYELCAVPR
T3 sequence (P11712 whole entry): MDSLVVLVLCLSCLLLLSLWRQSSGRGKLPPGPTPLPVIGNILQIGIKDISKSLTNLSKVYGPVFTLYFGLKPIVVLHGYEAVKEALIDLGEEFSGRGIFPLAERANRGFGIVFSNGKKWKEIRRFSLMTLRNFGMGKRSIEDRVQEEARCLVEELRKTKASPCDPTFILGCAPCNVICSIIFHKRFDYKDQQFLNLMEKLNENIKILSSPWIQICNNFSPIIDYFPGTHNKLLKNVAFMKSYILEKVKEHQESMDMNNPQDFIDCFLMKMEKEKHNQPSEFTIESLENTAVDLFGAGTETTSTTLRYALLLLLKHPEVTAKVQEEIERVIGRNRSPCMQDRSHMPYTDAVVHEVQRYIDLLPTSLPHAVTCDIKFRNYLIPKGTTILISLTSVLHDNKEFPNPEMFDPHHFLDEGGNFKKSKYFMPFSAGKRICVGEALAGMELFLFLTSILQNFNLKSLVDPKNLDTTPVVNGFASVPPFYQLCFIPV
Cytochrome P450 2C19, sequence (P33261 whole entry): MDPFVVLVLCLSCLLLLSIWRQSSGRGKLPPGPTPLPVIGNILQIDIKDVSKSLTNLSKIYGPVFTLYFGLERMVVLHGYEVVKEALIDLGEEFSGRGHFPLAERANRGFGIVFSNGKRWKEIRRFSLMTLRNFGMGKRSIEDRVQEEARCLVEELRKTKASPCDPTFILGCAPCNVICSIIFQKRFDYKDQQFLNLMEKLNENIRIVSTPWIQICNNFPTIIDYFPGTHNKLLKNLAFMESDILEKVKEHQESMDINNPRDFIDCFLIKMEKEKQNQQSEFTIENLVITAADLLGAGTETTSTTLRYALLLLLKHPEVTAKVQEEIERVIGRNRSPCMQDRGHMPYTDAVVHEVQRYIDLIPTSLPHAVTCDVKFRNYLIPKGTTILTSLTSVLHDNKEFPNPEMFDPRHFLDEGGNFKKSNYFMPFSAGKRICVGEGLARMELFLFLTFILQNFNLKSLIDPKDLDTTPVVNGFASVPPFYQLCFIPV
Ephrin type-A receptor 4, sequence (Q03137 whole entry): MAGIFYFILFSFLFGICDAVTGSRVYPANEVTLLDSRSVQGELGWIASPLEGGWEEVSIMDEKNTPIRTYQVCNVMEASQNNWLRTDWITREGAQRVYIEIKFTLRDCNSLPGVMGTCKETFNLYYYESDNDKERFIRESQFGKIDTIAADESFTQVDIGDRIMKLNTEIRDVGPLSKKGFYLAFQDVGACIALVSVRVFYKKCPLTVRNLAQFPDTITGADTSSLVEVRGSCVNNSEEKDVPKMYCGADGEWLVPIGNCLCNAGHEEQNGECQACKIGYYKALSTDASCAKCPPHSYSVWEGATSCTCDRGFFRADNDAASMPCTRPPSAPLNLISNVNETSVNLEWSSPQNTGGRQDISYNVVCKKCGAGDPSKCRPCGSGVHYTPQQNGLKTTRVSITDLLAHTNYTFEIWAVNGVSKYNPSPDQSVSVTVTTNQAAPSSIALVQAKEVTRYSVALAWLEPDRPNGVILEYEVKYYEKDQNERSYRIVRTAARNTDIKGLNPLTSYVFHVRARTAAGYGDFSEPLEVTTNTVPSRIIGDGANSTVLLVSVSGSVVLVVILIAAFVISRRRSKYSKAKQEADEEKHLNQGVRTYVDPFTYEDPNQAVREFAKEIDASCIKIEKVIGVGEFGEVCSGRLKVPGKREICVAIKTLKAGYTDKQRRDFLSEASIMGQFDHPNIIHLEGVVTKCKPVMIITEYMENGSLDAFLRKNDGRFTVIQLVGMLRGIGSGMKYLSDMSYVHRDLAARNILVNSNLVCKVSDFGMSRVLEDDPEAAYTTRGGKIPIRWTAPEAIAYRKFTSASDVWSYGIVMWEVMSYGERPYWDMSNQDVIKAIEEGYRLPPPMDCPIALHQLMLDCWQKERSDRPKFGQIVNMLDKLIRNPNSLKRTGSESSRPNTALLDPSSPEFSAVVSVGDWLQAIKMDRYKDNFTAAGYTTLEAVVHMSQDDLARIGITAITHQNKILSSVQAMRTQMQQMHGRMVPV
Eukaryotic translation initiation factor 4E, sequence (P63073 whole entry): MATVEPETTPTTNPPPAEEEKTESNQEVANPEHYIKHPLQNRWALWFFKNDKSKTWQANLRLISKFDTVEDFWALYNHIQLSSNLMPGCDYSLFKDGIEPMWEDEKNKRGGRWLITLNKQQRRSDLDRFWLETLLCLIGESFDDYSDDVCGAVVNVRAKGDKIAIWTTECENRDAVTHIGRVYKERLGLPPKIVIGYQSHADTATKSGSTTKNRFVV
T4 sequence (Q92731 whole entry): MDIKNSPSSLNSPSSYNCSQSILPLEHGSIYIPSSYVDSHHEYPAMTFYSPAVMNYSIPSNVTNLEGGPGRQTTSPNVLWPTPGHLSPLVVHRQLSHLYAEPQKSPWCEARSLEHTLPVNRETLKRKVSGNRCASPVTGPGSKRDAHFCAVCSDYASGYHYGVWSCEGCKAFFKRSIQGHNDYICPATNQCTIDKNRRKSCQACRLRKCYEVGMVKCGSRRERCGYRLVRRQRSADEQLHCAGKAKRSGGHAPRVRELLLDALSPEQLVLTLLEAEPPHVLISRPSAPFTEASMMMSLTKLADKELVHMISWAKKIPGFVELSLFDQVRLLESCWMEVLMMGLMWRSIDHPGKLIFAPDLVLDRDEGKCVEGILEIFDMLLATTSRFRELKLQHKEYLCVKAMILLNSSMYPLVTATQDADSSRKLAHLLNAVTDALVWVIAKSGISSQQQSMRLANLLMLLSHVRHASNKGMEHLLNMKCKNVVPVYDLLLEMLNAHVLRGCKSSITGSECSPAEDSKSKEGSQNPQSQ
FAD-linked sulfhydryl oxidase ALR, sequence (P55789 whole entry): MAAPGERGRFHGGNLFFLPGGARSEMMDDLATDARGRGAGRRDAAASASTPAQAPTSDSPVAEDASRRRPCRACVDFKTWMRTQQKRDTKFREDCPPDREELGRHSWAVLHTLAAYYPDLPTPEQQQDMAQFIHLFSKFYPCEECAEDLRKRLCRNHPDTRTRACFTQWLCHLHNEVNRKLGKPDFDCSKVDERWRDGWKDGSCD
Large T antigen, sequence (P03070 whole entry): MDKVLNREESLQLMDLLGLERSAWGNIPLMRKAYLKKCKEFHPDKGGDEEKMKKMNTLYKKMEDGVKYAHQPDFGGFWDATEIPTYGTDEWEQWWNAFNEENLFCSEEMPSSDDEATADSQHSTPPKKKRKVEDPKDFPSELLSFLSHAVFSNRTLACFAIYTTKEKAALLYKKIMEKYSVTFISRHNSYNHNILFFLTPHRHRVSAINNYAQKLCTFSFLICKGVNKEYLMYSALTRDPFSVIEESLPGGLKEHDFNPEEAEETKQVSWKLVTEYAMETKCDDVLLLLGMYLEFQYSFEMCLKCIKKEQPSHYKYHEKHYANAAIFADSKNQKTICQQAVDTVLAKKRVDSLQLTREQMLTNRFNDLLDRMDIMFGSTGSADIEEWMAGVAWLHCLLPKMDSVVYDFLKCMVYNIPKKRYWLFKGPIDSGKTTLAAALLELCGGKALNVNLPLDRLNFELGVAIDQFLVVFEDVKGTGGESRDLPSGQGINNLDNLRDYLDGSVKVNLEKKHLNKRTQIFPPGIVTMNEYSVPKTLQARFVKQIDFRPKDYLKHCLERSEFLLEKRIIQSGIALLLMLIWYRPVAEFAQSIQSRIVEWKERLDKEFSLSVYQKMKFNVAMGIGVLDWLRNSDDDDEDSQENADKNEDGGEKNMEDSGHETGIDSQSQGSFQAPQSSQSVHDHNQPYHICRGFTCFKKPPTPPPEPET

SMILES: COc1ccc(-c2c(C)nn3c(N)c(C#N)cnc23)cc1OC
- EC50 [1]: > 120 µM (not active)
- EC50 [2]: > 120 µM (not active)
- IC50 [3]: 50 µM (inactive)
- EC50 [4]: 50.1 µM (active)

SMILES: Cc1cc2c(cc1C)-c1nnc(-c3ccc4ccccc4n3)n1C(C)(C)C2
- AC50 (Cytochrome P450 3A4 [5]): inconclusive
- AC50 (Cytochrome P450 1A2): 5.01 µM (inconclusive)
- AC50 (Cytochrome P450 2C9 [6]): inconclusive

SMILES: Nc1nc(Cl)cc(NCCO)n1
- AC50 (Cytochrome P450 2D6): inconclusive
- AC50 (Cytochrome P450 2C19): inconclusive

SMILES: CCN1C(=O)[C@H]2[C@H]3[C@H](O)[C@H](O)C/C(=N/OC[C@@H](C)[C@H](OCc4ccccc4)C(C)C)[C@@H]3CC[C@@H]2C1=O
- AC50 (Cytochrome P450 2D6): inconclusive
- AC50 (Cytochrome P450 3A4 [7]): 3.98 µM (inconclusive)

SMILES: O=C(O)[C@H]1CCN1
- AC50 (Cytochrome P450 3A4 [5]): inconclusive
- AC50 (Cytochrome P450 2C9 [6]): inconclusive

SMILES: Cn1nccc1-c1cc(Cl)cc(Cl)c1O
- IC50 (Prothrombin): > 50 µM (not active)

SMILES: COc1cccc2cc3c(=O)n(-c4ccccc4)nc-3oc12
- IC50 (Estrogen receptor beta [8]): > 50 µM (not active)
- IC50 (Estrogen receptor beta [9]): 15.7 µM (active)

SMILES: CC(=O)N(c1ccc2oc(=O)sc2c1)S(=O)(=O)c1ccccc1
- IC50 (Ephrin type-A receptor 4): > 100 µM (not active)
- IC50 (Large T antigen): 30.3 µM (active)

SMILES: CNC(=S)NNC(=O)COc1ccccc1C
- AC50 (Cytochrome P450 2D6): inconclusive

SMILES: CCc1nnc(NC(=O)Cc2ccc(OCc3c(C)noc3C)cc2)s1
- IC50 [3]: > 64 µM (inactive)

SMILES: CC(C)COc1ccc(C(=O)Nc2scc(-c3ccc(Cl)cc3Cl)c2C(N)=O)cc1
- AC50 (Cytochrome P450 3A4 [5]): inconclusive
- EC50 [10]: 1.76 µM (active)
- EC50 [11]: > 60 µM (not active)

SMILES: CN(C)CCNc1nc2c(c(=O)n(C)c(=O)n2C)n1C
- AC50 (Cytochrome P450 2D6): inconclusive

SMILES: Cc1ccc2nc3c(cc(C(=O)NCCN4CCOCC4)c(=N)n3CCCN3CCOCC3)c(=O)n2c1
- AC50 [12]: 29.5 µM (active)

SMILES: O=C(CSc1nnc(Cn2nnc(-c3ccccc3)n2)n1-c1ccccc1)Nc1ccc(F)cc1
- IC50 (Prothrombin): > 50 µM (not active)

SMILES: CCSc1nnc(NC(=O)c2ccco2)s1
- IC50 (Prothrombin): > 50 µM (not active)

SMILES: CCOC(=O)c1cnc2c(C)cc(C)cc2c1NCCCN1CCOCC1
- AC50 [13]: 11.4 µM (active)
- AC50 [12]: 5.48 µM (active)

SMILES: CCN(CC)CCCN(Cc1cc2ccc(C)c(C)c2nc1O)C(=O)NC1CCCCC1
- AC50 (Cytochrome P450 2C19; read-out: AC50): 39.8 µM (inconclusive)
- AC50 [14]: > 20 µM (inactive)

SMILES: N#Cc1cccc(NC(=O)N2CCC3(CC2)CCN(C(=O)c2ccco2)CC3)c1
- AC50 (Cytochrome P450 3A4 [5]): inconclusive
- AC50 (Cytochrome P450 2C19; read-out: AC50): 20 µM (inconclusive)

SMILES: CCN(CCCNC(=O)CN(C)S(=O)(=O)c1cccc2nsnc12)c1cccc(C)c1
- IC50 (Ephrin type-A receptor 4): > 100 µM (not active)
- AC50 [15]: 3.31 µM (active)

SMILES: COC(=O)N1CCC2(CC1)CCN(C(c1ccccc1)c1ccccc1)CC2
- AC50 (Cytochrome P450 3A4 [5]): inconclusive
- AC50 (Cytochrome P450 2C9 [16]): 39.8 µM (inconclusive)

SMILES: COc1ccc(-c2nn3cnnc3s2)cc1OC
- AC50 (Cytochrome P450 2C9 [16]): 1.41 µM (inconclusive)
- IC50 (Prothrombin): > 50 µM (not active)

SMILES: CCC(=O)N1CCc2cc(S(=O)(=O)N3CCN(c4ccc([N+](=O)[O-])cc4)CC3)ccc21
- IC50 (Tumor necrosis factor): > 20 µM (inactive)
- IC50 (HEK293): > 20 µM (inactive)

SMILES: NS(=O)(=O)c1ccc(CCNC(=O)Cc2cccs2)cc1
- IC50 [17]: > 100 µM (not active)

SMILES: O=C(NCc1ccccc1)c1nc(-c2cccs2)no1
- IC50 (Prothrombin): > 50 µM (not active)
